The values below are quoted from earlier work in patent EP1935412A2, “Pharmaceutical composition containing 5-chloro-1-[1-[3-(2-oxo-2,3-dihydro-1H-benzimidazol-1-yl)propyl]piperidine-4-yl]-1,3-dihydro-2H-benzimidazol-2-one and method of preparing same” (GALENIX DEVELOPPEMENT, priority 2006, dated 2008).

Structures are written as SMILES.

The conditions of this data set: dans l'eau.

With `O=c1[nH]c2ccccc2n1CCCN1CCC(n2c(=O)[nH]c3cc(Cl)ccc32)CC1` [dompéridone, 5-chloro-1-[1-[3-(2-oxo-2,3-dihydro-1H-benzimidazol-1-yl)propyl]pipéridin-4-yl]-1,3-dihydro-2H-benzimidazol-2-one], the Solubility in water result is listed as “pratiquement insoluble dans l'eau”.
